{"source": "paper PMC10303159", "about": "“Conjugation of Triterpenic Acids of Ursane and Oleanane Types with Mitochondria-Targeting Cation F16 Synergistically Enhanced Their Cytotoxicity against Tumor Cells” (Membranes, 2023)", "key": {"[1]": {"system": "H1299 cells (human non-small cell lung cancer)", "assay": "MTT cytotoxicity assay, H1299", "assay_type": "cell-based", "conditions": "Homo sapiens, NCI-H1299, 48 h of treatment, mean ± SEM", "source_text": "(§1) All cell lines used in this study (human non-small cell lung cancer—H1299 (Accession Number—CRL-5803), human lung carcinoma—A549 (Accession Number—CCL-185), human breast adenocarcinoma—MCF-7 (Accession Number—HTB-22), human breast ductal carcinoma—BT474 (Accession Number—HTB-20)) were purchased from American Type Culture Collection (ATCC, Manassas, VA, USA). Human primary dermal fibroblasts (HPDF) derived from a patch of skin of healthy donors (n = 3) were obtained from the biobank of the Institute for Regenerative Medicine, Lomonosov Moscow State University, collection ID: MSU_FB (https://human.depo.msu.ru (accessed on 14 September 2021)). Cells were grown in DMEM media supplemented with 10% fetal bovine serum, 100 μg/mL gentamycin, and 2 mM of glutamine at 37 °C in a 5% CO2 atmosphere.\n(§2) To carry out the MTT assay, 3500 cells per well were seeded in 96-well plates. A day after the seeding, triterpenoids or their derivatives dissolved in DMSO were added. DMSO was used as a control. At 48 h after cell seeding, 10 μL of 5 mg/mL Thiazolyl Blue (Paneko, Russia) solution was added to each well and cells were kept for 3 h at 37 °C in a CO2 incubator. After removing the thiazol-containing medium, 150 μL of isopropyl alcohol (supplemented with 40 mM HCl and 0.1% NP-40) was added to dissolve the MTT-formazan salt. The absorbance at 570 and 630 nm (reference) was measured using a BioRad iMark microplate reader (BioRad, Hercules, CA, USA). Four biological replicates were used for the experiment. The results were processed with Excel software (version number: 14.0.6023.1000 (32-bit)). IC50 values were calculated by using AAT Bioquest online calculator (https://www.aatbio.com/tools/ic50-calculator, accessed on 15 May 2023) and are represented as the mean ± SEM."}, "[2]": {"system": "A549 cells (human lung carcinoma)", "assay": "MTT cytotoxicity assay, A549", "assay_type": "cell-based", "conditions": "Homo sapiens, A549, 48 h, MTT assay, 48 h of treatment, mean ± SEM", "source_text": "as §1\nas §2, with “A day after the seeding, triterpenoids or their derivatives dissolved in DMSO were added.” left out, “At 48 h after cell seeding, 10 μL of 5 mg/mL Thiazolyl Blue (Paneko, Russia) solution was added to each well and cells were kept for 3 h at 37 °C in a CO2 incubator.” left out"}, "[3]": {"system": "MCF-7 cells (human breast adenocarcinoma)", "assay": "MTT cytotoxicity assay, MCF-7", "assay_type": "cell-based", "source_text": "as §1, §2"}, "[4]": {"system": "BT474 cells (human breast ductal carcinoma)", "assay": "MTT cytotoxicity assay, BT474", "assay_type": "cell-based", "conditions": "BT-474, 48 h of treatment, mean ± SEM", "source_text": "as §1, §2"}, "[5]": {"system": "Human primary dermal fibroblasts (HPDF)", "assay": "MTT cytotoxicity assay, HPDF", "assay_type": "cell-based", "source_text": "as §1\nas §2, with “A day after the seeding, triterpenoids or their derivatives dissolved in DMSO were added.” left out, “At 48 h after cell seeding, 10 μL of 5 mg/mL Thiazolyl Blue (Paneko, Russia) solution was added to each well and cells were kept for 3 h at 37 °C in a CO2 incubator.” left out"}, "BT474 cells": {"system": "BT474 cells", "assay": "Oxidative stress assay (Muse Oxidative Stress Kit), BT474", "assay_type": "cell-based, human", "conditions": "BT474, 2 μM", "method": "Oxidative stress was assessed after cell culture and incubation (as described above). For this, cells were harvested by trypsinization, washed with ice-cold PBS buffer (pH 7.4), and centrifuged (1000 rpm, 5 min). The resulting cells were resuspended in PBS. Cell population analysis for oxidative stress was performed on a Muse cell analyzer (Merck Millipore, Burlington, MA, USA) using the Muse Oxidative Stress Kit (MCH100111) according to the manufacturer’s protocol."}, "rat liver mitochondria [6]": {"system": "rat liver mitochondria", "assay": "Respiration of isolated mitochondria fueled by glutamate and malate", "assay_type": "biochemical", "method": "(§3) Mitochondria were obtained from the liver of male Wistar rats (210–250 g) using the differential centrifugation method. The detailed procedure and composition of the isolation media were described earlier. The suspension of isolated mitochondria contained about 60–70 mg of mitochondrial protein per ml (determined by the Bradford method).\n(§4) The rate of O2 consumption by mitochondrial samples was estimated using Oxygraph Plus (Hansatech Instruments Ltd., Pentney, King’s Lynn, UK). The reaction medium included 200 mM sucrose, 20 mM KCl, 0.5 mM EGTA, 5 mM KH2PO4, and 10 mM Hepes/KOH, pH 7.4. The following combinations of substrates and reagents were used: 2.5 mM potassium glutamate + 2.5 mM potassium malate and 5 mM potassium succinate + 1 µM rotenone. Under these conditions, it is possible to assess the oxygen-consuming capacity of mitochondria through complexes I and II of the electron transport chain. To determine the rates of the phosphorylating respiration (State 3) and uncoupled respiration (State 3UDNP) of the mitochondria, 200 µM ADP and 50 µM 2,4-dinitrophenol (DNP) were added sequentially. The concentration of mitochondrial protein was 1 mg/mL."}, "rat liver mitochondria [7]": {"system": "rat liver mitochondria", "assay": "Respiration of isolated mitochondria fueled by succinate", "assay_type": "biochemical", "method": "as §3, §4"}, "rat liver mitochondria [8]": {"system": "rat liver mitochondria", "assay": "Mitochondrial membrane potential (TPP-sensitive electrode)", "assay_type": "biochemical", "conditions": "glutamate + malate or succinate + rotenone, Figure 5", "method": "as §3\nThe mitochondrial membrane potential (Δψ) was measured using a penetrating tetraphenylphosphonium bromide (TPP) cation and a TPP-sensitive electrode (Nico-Analyte Ltd., Moscow, Russia) as described previously. The concentration of mitochondrial protein was 1 mg/mL."}, "rat liver mitochondria [9]": {"system": "rat liver mitochondria", "assay": "Mitochondrial H2O2 generation (Amplex Red)", "assay_type": "biochemical", "conditions": "5 μM", "method": "as §3\nThe fluorescent probe Amplex Red (λex = 560 nm; λem = 590 nm) and a plate reader Varioskan Lux were used to register mitochondrial H2O2 generation. In this case, 0.15 mg of mitochondrial protein was incubated in the buffer containing 210 mM mannitol, 70 mM sucrose, 10 μM EGTA, 10 µM Amplex Red, 1 µM rotenone, 10 µM EGTA, horseradish peroxidase (HRP 1 a.u./mL), 10 mM Hepes/KOH, and at a pH of 7.4. […] The kinetics of H2O2 generation was recorded for three minutes."}}, "data": [{"smiles": "CC1(C)CCC2(C(=O)OCCCC[n+]3ccc(C=Cc4c[nH]c5ccccc45)cc3)CCC3(C)C(=CCC4C5(C)CCC(O)C(C)(C)C5CCC43C)C2C1", "note": "(stereo not shown) [OA-F16]", "values": [{"measurement": "IC50", "setting": "[1]", "value": "930 ± 70", "unit": "nM"}, {"measurement": "IC50", "setting": "[2]", "value": "740 ± 90", "unit": "nM"}, {"measurement": "IC50", "setting": "[3]; Homo sapiens, MCF7, MTT assay, 48 h of treatment, mean ± SEM", "value": "1520 ± 160", "unit": "nM"}, {"measurement": "Chou–Talalay combination index (CI)", "setting": "[3]; MCF7 cells, based on IC50 values for parent acid, F16 [23] and conjugate, CI < 1 synergism", "value": 0.03}, {"measurement": "IC50", "setting": "[4]", "value": "4340 ± 280", "unit": "nM"}, {"measurement": "IC50", "setting": "[5]; Homo sapiens, Fibroblast, MTT assay, 48 h of treatment, mean ± SEM", "value": "2050 ± 580", "unit": "nM"}, {"measurement": "Selectivity index (SI)", "setting": "[5]; between tumor cells H1299, A549 and MCF-7 and fibroblasts", "value": "1.3–2.8"}, {"measurement": "Effect on level of ROS-positive cells", "setting": "BT474 cells", "value": "significantly increase the level of ROS-positive cells"}, {"measurement": "ADP/O", "setting": "rat liver mitochondria [6]; 10 μM", "value": "2.80 ± 0.13", "unit": "rel. un."}, {"measurement": "RC (state 3/state 4)", "setting": "rat liver mitochondria [6]; 10 μM", "value": "2.24 ± 0.11", "unit": "rel. un."}, {"measurement": "State 2 respiration", "setting": "rat liver mitochondria [6]; 10 μM", "value": "6.47 ± 0.27", "unit": "nmol O2/min/mg Protein"}, {"measurement": "State 3UDNP respiration", "setting": "rat liver mitochondria [6]; 10 μM", "value": "31.34 ± 0.49", "unit": "nmol O2/min/mg Protein"}, {"measurement": "State 3 respiration", "setting": "rat liver mitochondria [6]; 10 μM", "value": "23.82 ± 0.53", "unit": "nmol O2/min/mg Protein"}, {"measurement": "State 4 respiration", "setting": "rat liver mitochondria [6]; 10 μM", "value": "10.65 ± 0.24", "unit": "nmol O2/min/mg Protein"}, {"measurement": "ADP/O", "setting": "rat liver mitochondria [6]; 20 μM", "value": "0.64 ± 0.05", "unit": "rel. un."}, {"measurement": "RC (state 3/state 4)", "setting": "rat liver mitochondria [6]; 20 μM", "value": "1.03 ± 0.04", "unit": "rel. un."}, {"measurement": "State 2 respiration", "setting": "rat liver mitochondria [6]; 20 μM", "value": "15.38 ± 0.30", "unit": "nmol O2/min/mg Protein"}, {"measurement": "State 3UDNP respiration", "setting": "rat liver mitochondria [6]; 20 μM", "value": "23.24 ± 0.61 *#^γ nmol O2/min/mg Protein"}, {"measurement": "State 3 respiration", "setting": "rat liver mitochondria [6]; 20 μM", "value": "17.02 ± 0.97", "unit": "nmol O2/min/mg Protein"}, {"measurement": "State 4 respiration", "setting": "rat liver mitochondria [6]; 20 μM", "value": "16.55 ± 0.54", "unit": "nmol O2/min/mg Protein"}, {"measurement": "ADP/O", "setting": "rat liver mitochondria [7]; 10 μM", "value": "1.41 ± 0.09", "unit": "rel. un."}, {"measurement": "RC (state 3/state 4)", "setting": "rat liver mitochondria [7]; 10 μM", "value": "2.83 ± 0.20", "unit": "rel. un."}, {"measurement": "State 2 respiration", "setting": "rat liver mitochondria [7]; 10 μM", "value": "14.39 ± 0.65", "unit": "nmol O2/min/mg Protein"}, {"measurement": "State 3UDNP respiration", "setting": "rat liver mitochondria [7]; 10 μM", "value": "69.57 ± 1.73", "unit": "nmol O2/min/mg Protein"}, {"measurement": "State 3 respiration", "setting": "rat liver mitochondria [7]; 10 μM", "value": "48.46 ± 0.82", "unit": "nmol O2/min/mg Protein"}, {"measurement": "State 4 respiration", "setting": "rat liver mitochondria [7]; 10 μM", "value": "17.22 ± 0.93", "unit": "nmol O2/min/mg Protein"}, {"measurement": "ADP/O", "setting": "rat liver mitochondria [7]; 20 μM", "value": "1.15 ± 0.05", "unit": "rel. un."}, {"measurement": "RC (state 3/state 4)", "setting": "rat liver mitochondria [7]; 20 μM", "value": "1.25 ± 0.10", "unit": "rel. un."}, {"measurement": "State 2 respiration", "setting": "rat liver mitochondria [7]; 20 μM", "value": "14.05 ± 0.18", "unit": "nmol O2/min/mg Protein"}, {"measurement": "State 3UDNP respiration", "setting": "rat liver mitochondria [7]; 20 μM", "value": "56.46 ± 4.21", "unit": "nmol O2/min/mg Protein"}, {"measurement": "State 3 respiration", "setting": "rat liver mitochondria [7]; 20 μM", "value": "41.57 ± 1.36", "unit": "nmol O2/min/mg Protein"}, {"measurement": "State 4 respiration", "setting": "rat liver mitochondria [7]; 20 μM", "value": "33.23 ± 0.75", "unit": "nmol O2/min/mg Protein"}, {"measurement": "Effect on membrane potential of organelles", "setting": "rat liver mitochondria [8]", "value": "the most effective"}, {"measurement": "Effect on production of H2O2 by organelles", "setting": "rat liver mitochondria [9]", "value": "antioxidant effect"}]}]}
